The values below come from patent US20050019331A1, “Synthetic peptide neutrophil cell chemotactic agents” (Chrysalis Biotechnology, priority 1994, published 2005).

Ends that are not written are not given here.

Test [1] relates to NTP receptor on human neutrophils. The test is described as follows: 125I-NTP-Y saturation binding to neutrophils. As for the experimental part:
NTP was radiolabeled using IODO-GEN® (Pierce) catalyzed iodination (Fraker and Speck, 1978, specifically incorporated herein by reference). 5 mCi of Na^125I (Amersham, UK) was incubated in glass tubes coated with IODO-GEN® with 250 μg of HPLC-purified NTP-Y in 250 μl of Phosphate Buffered Saline (PBS), pH 7.2. After 7 minutes, the radiolabeled peptide was separated from free ^125Iodine by its adsorption to a C-18 SEP PAK® column, followed by elution with 100% acetonitrile. The eluted radioactive peptide was then dried under vacuum to remove acetonitrile, rehydrated with PBS, and stored as frozen aliquots (−20° C.) at a concentration of 100 μg/ml.
For saturation binding assays, […] were incubated at 37° C. with indicated concentrations of ^125I-NTP-Y in 100 μl of DV medium containing 20 mM HEPES buffer, pH 7.4, in 0.6 ml eppendorf tubes. The binding was terminated and ^125I-NTP-Y that was bound to cells was separated from free ^125I-NTP-Y by rapid filtration and rinsing (2× with 10 mls of 4° C. PBS) through Whatman GF/C filters, using a Millipore filtration apparatus. Radioactivity on filters was then counted in a gamma counter (Beckman Instruments, Inc., model Gamma 4000). Nonspecific binding of ^125I-NTP-Y was measured in the presence of a 500-fold molar excess of unlabeled peptide and was subtracted from total binding to determine the amount of specific (saturable) binding.
NTP was synthesized with an N-terminal tyrosine (YRRPESKATNATLDPR—SEQ ID NO.: 6), analyzed for chemotactic activity, and radiolabeled as described in methods. […] Specific binding was determined by subtracting the nonspecific binding of ^125I-NTP-Y (binding in the presence of 500-fold molar excess of unlabeled NTP-Y) from the total binding. Insert represents a Scatchard-like analysis of the binding isotherm using total radioactivity in the medium as a measure of free ligand. […]

Test [2] has as its system fibroblasts. The test is described as follows: Parallel 125I-NTP-Y binding studies with fibroblasts. The text has this:
The chemotactic effects of NTP appeared to be mediated by interaction with specific NTP receptor binding sites on the surface of neutrophils.

For test [3], the system named is human neutrophils. The test is described as follows: Neutrophil chemotaxis in Modified Boyden 48-well Microchemotaxis Chambers. Type of test: cell-based. The note with it: for maximal stimulation of neutrophil chemotaxis relative to thrombin or IL-8: FIG. 3 vs FIG. 1C. How it is done:
Human neutrophils were isolated from blood of healthy volunteers, drawn into one-tenth volume of trisodium citrate. The neutrophils were isolated from the blood using established Ficoll-Hypaque (MONO POLYRESOLVING MEDIUM™) protocol, Kalmer et al. 1988, specifically incorporated herein by reference. The cells were washed in HBSS containing 20 mM HEPES, pH 7.4 (HHBSS), pelleted by centrifugation (600×g), and resuspended into HHBSS at the indicated density. Trypan blue exclusion assays indicated greater than 97% cell viability.
Freshly isolated human neutrophils (150,000 cells per 50 μl) were applied to wells of Modified Boyden 48-well Microchemotaxis Chambers (Neuro Probe, Cabin John, Md.) with pre-wet […], PVP-free polycarbonate membranes (Neuro Probe, Cabin John, Md.) (see Mansfield, et al. 1990, which is specifically incorporated herein by reference). The lower well in these chambers were filled with 27 μl of HHBSS solution containing indicated concentrations of substances to be tested. After loading, the chambers were incubated for 2 hours at 37° C. Membranes were removed, rinsed with HHBSS, fixed and stained using DIFF-QUIK® to visualize and quantitate cells that had migrated through the filters. For each assay condition, cells migrating through 4 wells were examined using a Nikon Microscope (at 400×). For each well, the total cells present in 6 random fields were counted and recorded. Each assay represents data from at least three analyses of the same type with neutrophils isolated from at least two individuals.
Freshly isolated human peripheral blood neutrophils were added to wells of Modified Boyden Microwell Chemotaxis Chambers and the number of cells migrating through the filters was determined as described in Materials and Methods. For each assay, cells migrating through 4 wells were examined, counted, and recorded (6 random fields per well) using a Nikon LabPhot Microscope (400×).
Human neutrophils were added to wells of Boyden Microwell Chambers and assayed for directed chemotaxis toward indicated concentrations of synthetic peptides representing the tethered ligand region of PART (SFLLRNPNDKYEPF—SEQ ID NO.: 7), or TRAP-508, the high-affinity receptor binding domain of human thrombin ([…]—SEQ ID NO.: 8).
Indicated concentrations of peptides representing residues 26-41 of the human (SEQ ID NO.: 1) (∇) or hamster (SEQ ID NO.: 2) (∘) PART receptor component were added to lower wells of Boyden Microwell Chambers and neutrophil chemotaxis toward the peptides was assayed as described above.

The test system of test [4] is neutrophils. As to the kind of experiment: Superoxide generation by stimulated neutrophils (SOD-inhibitable ferricytochrome C reduction). Type of test: cell-based, human. The following applies: for O2 released (superoxide generation): 2×10^6 neutrophils/ml, twenty minutes after addition. How it is done:
Superoxide generation was determined by measuring the superoxide dismutase (SOD)-inhibitable reduction of ferricytochrome C (Thomas et al., 1992, incorporated herein by reference). Briefly, 2×10^6 neutrophils/ml were incubated with, ferricytochrome C (433 μg/ml) and glucose (1.1 mM) in phosphate buffered saline (PBS) at 37° C. for five minutes, in presence or absence of 1 μg/ml SOD. Twenty minutes after addition of NTP, IL-8, or PBS, aliquots were removed, cooled to 4° C., and filtered through […] particle separators (Amicon). The optical absorption of the filtrate was then read at 550 nm. The amount of O2 generated was calculated by the difference in absorbance of the samples with or without SOD, using a 15.5 millimolar extinction coefficient at 550 nm for cytochrome C reduction.

Test [5] has as its system fibroblasts and other cells. The following applies: Van Obberghen-Schilling and Pouyssegur 1993; cited from earlier work.
Test [6] has as its system fibroblasts. As to the kind of experiment: c-fos and other G-protein initiated signals in fibroblasts. The test is classed as cell-based. The note with it: compared with proteolytically active thrombin. An excerpt:
Therefore, the PART activating peptide fragment was not sufficient to stimulate chemotaxis.

As for “^125I-NTP-Y: NTP-Y radiolabeled with 125I by IODO-GEN catalyzed iodination (YRRPESKATNATLDPR; also: 125I radiolabel)”, the “binding to human neutrophils” value in test [1] (40 min at 37° C., FIG. 5) was “specified and saturable”. Besides, the “NTP receptors per cell (saturation curve and Scatchard-like analysis)” value in test [1] (human neutrophils, FIG. 5 insert) was approximately 3000 receptors per cell. Moreover, the “dose-response curve compared with NTP” value in test [1] (iodinated peptide, iodination does not alter peptide activity) is recorded as “nearly identical to NTP”. In addition, the “specific binding to fibroblasts” value in test [2] is given as “no detectable specific binding”.

For SFFLRN [reference compound], in test [3] (concentrations up to 2000-fold higher than NTP), the neutrophil chemotaxis result is “did not”.

Take “RQPESEMTDA TVNPR (RQPESEMTDATVNPR) [SEQ ID NO.: 2, peptide representing residues 26-41 of the hamster PART receptor component]”: the “maximal stimulation of neutrophil chemotaxis relative to thrombin or IL-8” value in test [3] was “nearly equivalent to that seen with thrombin or IL-8”.

On to “NTP: released N-terminal fragment peptide of PART; species (human or hamster) not stated at these places (RQPESEMTDATVNPR)”, for which the neutrophil chemotaxis result in test [3] (NTP, Example 4) is given as “stimulated neutrophil chemotaxis”. Also, the “superoxide generation compared to IL-8” value in test [4] (800 nM NTP vs 400 nmolar IL-8) is on record as “negligible”. For the same substance, the “O2 released (superoxide generation)” value in test [4] (800 nM NTP) turned out to be 9 ± 0.9 nmol. Also, the “activity on fibroblasts and other cells” value in test [5] was “no apparent activity”.

Turning to “RRPESKATNA TLDPR (RRPESKATNATLDPR) [SEQ ID NO.: 1, peptide representing residues 26-41 of the human PART receptor component]”, the “maximal stimulation of neutrophil chemotaxis relative to thrombin or IL-8” value in test [3] is “nearly equivalent to that seen with thrombin or IL-8”.

Regarding “SFLLRNPNDKYEPF [PART activating peptide fragment, synthetic peptide representing the tethered ligand region of PART, reference compound]”, the neutrophil chemotaxis entry in test [3] (concentrations up to 7.0 μM, FIG. 2) is “only marginally chemotactic”. Further, the “stimulation of c-fos and other G-protein initiated signals” value in test [6] is given as “nearly the same extent as proteolytically active thrombin”.

With IL-8: recombinant IL-8, in test [3] (FIG. 1, 2 hours at 37° C., read-out: concentration required for half-maximal stimulation of neutrophil chemotaxis), the EC50 was approximately 10 nM. In addition, the “O2 released (superoxide generation)” value in test [4] (400 nmolar IL-8) worked out at 102 ± 16 nmol.
